PubChem BioAssay (NCI)
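Test compounds were applied to cells in 96-well plates for 48 hours at 5 doses. GI50 = concentration required for 50% inhibition of growth. TGI: concentration producing complete growth inhibition.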

Key:
Test in all cases: growth of human tumour cells (NCI), 48 h
[1] = tested on: 786-0 renal
[2] = tested on: A498 renal
[3] = tested on: A549 NSCLC
[4] = tested on: ACHN renal
[5] = tested on: BT-549 breast
[6] = tested on: CAKI-1 renal
[7] = tested on: CCRF-CEM leukemia
[8] = tested on: COLO 205 colon
[9] = tested on: DU-145 prostate
[10] = tested on: EKVX NSCLC
[11] = tested on: HCC-2998 colon
[12] = tested on: HCT-116 colon
[13] = tested on: HCT-15 colon
[14] = tested on: HL-60(TB) leukemia
[15] = tested on: HOP-62 NSCLC
[16] = tested on: HOP-92 NSCLC
[17] = tested on: HS 578T breast
[18] = tested on: HT29 colon
[19] = tested on: IGROV1 ovarian
[20] = tested on: K-562 leukemia
[21] = tested on: KM12 colon
[22] = tested on: LOX IMVI melanoma
[23] = tested on: M14 melanoma
[24] = tested on: MALME-3M melanoma
[25] = tested on: MCF7 breast
[26] = tested on: MDA-MB-231 breast
[27] = tested on: MDA-MB-435
[28] = tested on: MOLT-4 leukemia
[29] = tested on: NCI-H226 lung
[30] = tested on: NCI-H23 lung
[31] = tested on: NCI-H460 lung
[32] = tested on: NCI-H522 lung
[33] = tested on: NCI/ADR-RES ovarian
[34] = tested on: OVCAR-3 ovarian
[35] = tested on: OVCAR-4 ovarian
[36] = tested on: OVCAR-5 ovarian
[37] = tested on: OVCAR-8 ovarian
[38] = tested on: PC-3 prostate
[39] = tested on: RPMI-8226 leukemia
[40] = tested on: RXF 393 renal
[41] = tested on: SF-268 CNS
[42] = tested on: SF-295 CNS
[43] = tested on: SF-539 CNS
[44] = tested on: SK-MEL-2 melanoma
[45] = tested on: SK-MEL-28 melanoma
[46] = tested on: SK-MEL-5 melanoma
[47] = tested on: SK-OV-3 ovarian
[48] = tested on: SN12C renal
[49] = tested on: SNB-19 CNS
[50] = tested on: SNB-75 CNS
[51] = tested on: SR leukemia
[52] = tested on: SW-620 colon
[53] = tested on: T-47D breast
[54] = tested on: TK-10 renal
[55] = tested on: U251 CNS
[56] = tested on: UACC-257 melanoma
[57] = tested on: UACC-62 melanoma
[58] = tested on: UO-31 renal

## Cn1ccnc1C(=O)/C=C/c1ccc(C(=O)Nc2ccccc2F)cc1
[1]
  GI50: 1.69 µM
  TGI: 3.32 µM
[2]
  GI50: 2.41 µM
  TGI: 8.21 µM
[3]
  GI50: 3.01 µM
  TGI: 13.2 µM
[4]
  GI50: 2.01 µM
  TGI: 4.15 µM
[5]
  GI50: 1.77 µM
  TGI: 4.21 µM
[6]
  GI50: 1.04 µM
  TGI: 4.33 µM
[7]
  GI50: 1.18 µM
  TGI: 7.54 µM
[8]
  GI50: 2.74 µM
  TGI: 6.67 µM
[9]
  GI50: 1.64 µM
  TGI: 3.32 µM
[10]
  GI50: 2.9 µM
  TGI: 11.5 µM
[11]
  GI50: 2.34 µM
  TGI: 4.67 µM
[12]
  GI50: 0.862 µM
  TGI: 2.35 µM
[13]
  GI50: 1.33 µM
  TGI: 4.06 µM
[14]
  GI50: 1.6 µM
  TGI: 4.33 µM
[15]
  GI50: 4.27 µM
  TGI: 17.1 µM
[16]
  GI50: 1.9 µM
  TGI: 7.07 µM
[17]
  GI50: 3.02 µM
  TGI: 15.4 µM
[18]
  GI50: 2.49 µM
  TGI: 6.68 µM
[19]
  GI50: 2.12 µM
  TGI: 5.05 µM
[20]
  GI50: 0.372 µM
  TGI: > 100 µM
[21]
  GI50: 1.89 µM
  TGI: 3.82 µM
[22]
  GI50: 0.636 µM
  TGI: 2.24 µM
[23]
  GI50: 1.7 µM
  TGI: 3.81 µM
[24]
  GI50: 1.93 µM
  TGI: 4.58 µM
[25]
  GI50: 1.82 µM
  TGI: 6.63 µM
[26]
  GI50: 3.24 µM
  TGI: 10.5 µM
[27]
  GI50: 2.09 µM
  TGI: 5.04 µM
[28]
  GI50: 2.38 µM
  TGI: 6.41 µM
[29]
  GI50: 2.63 µM
  TGI: 10.3 µM
[30]
  GI50: 2.85 µM
  TGI: 9.43 µM
[31]
  GI50: 1.94 µM
  TGI: 5.43 µM
[32]
  GI50: 2.66 µM
  TGI: 8.76 µM
[33]
  GI50: 3.29 µM
  TGI: 22.5 µM
[34]
  GI50: 2 µM
  TGI: 4.57 µM
[35]
  GI50: 2.76 µM
  TGI: 12.8 µM
[36]
  GI50: 2.42 µM
  TGI: 6.42 µM
[37]
  GI50: 3.68 µM
  TGI: 21.6 µM
[38]
  GI50: 1.89 µM
  TGI: 4.47 µM
[39]
  GI50: 0.567 µM
  TGI: 2.82 µM
[40]
  GI50: 1.75 µM
  TGI: 3.63 µM
[41]
  GI50: 2.46 µM
  TGI: 9.16 µM
[42]
  GI50: 4.6 µM
  TGI: 16.3 µM
[43]
  GI50: 1.75 µM
  TGI: 4.24 µM
[44]
  GI50: 6.25 µM
  TGI: 28.1 µM
[45]
  GI50: 2.04 µM
  TGI: 4.59 µM
[46]
  GI50: 2.14 µM
  TGI: 4.56 µM
[47]
  GI50: 6.53 µM
  TGI: 20.6 µM
[48]
  GI50: 2.63 µM
  TGI: 9.56 µM
[49]
  GI50: 2.06 µM
  TGI: 5.66 µM
[50]
  GI50: 1.36 µM
  TGI: 8.03 µM
[51]
  GI50: 0.304 µM
  TGI: 2.34 µM
[52]
  GI50: 1.76 µM
  TGI: 6.29 µM
[53]
  GI50: 2.9 µM
  TGI: 17.8 µM
[54]
  GI50: 3.84 µM
  TGI: 15.9 µM
[55]
  GI50: 1.3 µM
  TGI: 3.29 µM
[56]
  GI50: 3.51 µM
  TGI: 14 µM
[57]
  GI50: 1.98 µM
  TGI: 4.47 µM
[58]
  GI50: 1.38 µM
  TGI: 2.67 µM

## COc1ccc2[nH]c(C(=O)N3CCN(C(=O)OCc4ccc5c(Br)cc(Br)c(O)c5n4)CC3)cc2c1
[1]
  GI50: 0.27 µM
  TGI: 0.759 µM
[2]
  GI50: 1.58 µM
  TGI: 2.98 µM
[3]
  GI50: 1.68 µM
  TGI: 3.59 µM
[4]
  GI50: 0.17 µM
  TGI: 0.335 µM
[5]
  GI50: 0.213 µM
  TGI: 0.585 µM
[6]
  GI50: 0.244 µM
  TGI: 0.749 µM
[7]
  GI50: 0.238 µM
  TGI: 1.63 µM
[8]
  GI50: 0.193 µM
  TGI: 0.426 µM
[9]
  GI50: 0.396 µM
  TGI: 1.37 µM
[10]
  GI50: 1.37 µM
  TGI: 2.93 µM
[11]
  GI50: 0.898 µM
  TGI: 2.39 µM
[12]
  GI50: 0.178 µM
  TGI: 0.393 µM
[13]
  GI50: 0.219 µM
  TGI: 0.596 µM
[14]
  GI50: 0.318 µM
  TGI: 1.14 µM
[15]
  GI50: 1.59 µM
  TGI: 3.66 µM
[16]
  GI50: 0.178 µM
  TGI: 0.86 µM
[17]
  GI50: 1.05 µM
  TGI: 4.29 µM
[18]
  GI50: 0.318 µM
  TGI: 1.03 µM
[19]
  GI50: 0.368 µM
  TGI: 1.36 µM
[20]
  GI50: 0.294 µM
  TGI: 0.978 µM
[21]
  GI50: 1.37 µM
  TGI: 2.83 µM
[22]
  GI50: 0.172 µM
  TGI: 0.334 µM
[23]
  GI50: 0.262 µM
  TGI: 0.753 µM
[24]
  GI50: 1.02 µM
  TGI: 2.37 µM
[25]
  GI50: 0.262 µM
  TGI: 1.18 µM
[26]
  GI50: 0.388 µM
  TGI: 1.39 µM
[27]
  GI50: 0.258 µM
  TGI: 0.695 µM
[28]
  GI50: 0.298 µM
  TGI: 0.966 µM
[29]
  GI50: 0.496 µM
  TGI: 1.05 µM
[30]
  GI50: 1.48 µM
  TGI: 3.15 µM
[31]
  GI50: 1.36 µM
  TGI: 3.14 µM
[32]
  GI50: 0.206 µM
  TGI: 0.546 µM
[33]
  GI50: 0.336 µM
  TGI: 1.76 µM
[34]
  GI50: 0.197 µM
  TGI: 0.427 µM
[35]
  GI50: 0.302 µM
  TGI: 0.972 µM
[36]
  GI50: 0.603 µM
  TGI: 1.98 µM
[37]
  GI50: 0.277 µM
  TGI: 0.857 µM
[38]
  GI50: 0.442 µM
  TGI: 1.5 µM
[39]
  GI50: 0.243 µM
  TGI: 0.809 µM
[40]
  GI50: 0.208 µM
  TGI: 0.575 µM
[41]
  GI50: 1.2 µM
  TGI: 2.74 µM
[42]
  GI50: 1.61 µM
  TGI: 3.03 µM
[43]
  GI50: 0.926 µM
  TGI: 2.25 µM
[44]
  GI50: 0.577 µM
  TGI: 1.55 µM
[45]
  GI50: 0.448 µM
  TGI: 1.51 µM
[46]
  GI50: 0.62 µM
  TGI: 1.77 µM
[47]
  GI50: 1.87 µM
  TGI: 3.39 µM
[48]
  GI50: 0.313 µM
  TGI: 1.07 µM
[49]
  GI50: 1.46 µM
  TGI: 2.83 µM
[50]
  GI50: 0.735 µM
  TGI: 2.16 µM
[51]
  GI50: 0.243 µM
  TGI: 1.23 µM
[52]
  GI50: 0.222 µM
  TGI: 0.507 µM
[53]
  GI50: 1.35 µM
  TGI: 4.46 µM
[54]
  GI50: 0.306 µM
  TGI: 1.01 µM
[55]
  GI50: 1.29 µM
  TGI: 2.59 µM
[56]
  GI50: 0.447 µM
  TGI: 1.4 µM
[57]
  GI50: 0.258 µM
  TGI: 0.749 µM
[58]
  GI50: 0.153 µM
  TGI: 0.323 µM
